Here are results for 7 compounds from US10858423B2, “Composition for the treatment of IGF-1R expressing cancer” (PIERRE FABRE MEDICAMENT, priority 2015, dated 2020).

One assay relates to A549 cells. The experiment in a line: ATPlite antiproliferative assay, A549. Format: cell-based. As to conditions: Homo sapiens. The procedure: (§1) A549 (Non Small Cell Lung Cancer—ATCC CCL-185) and MDA-MB-231 (breast adenocarcinoma—ATCC HTB-26) cells were cultured in Minimum Essential Medium Eagle (MEM) with 5% fetal calf serum (FCS) and Dulbecco's modified Eagle Medium (DMEM) with 10% FCS respectively. MCF7 (breast ductal carcinoma—ATCC HTB-22) and SN-12C (kidney carcinoma—ATCC) cells were maintained in RPMI1640 medium (without phenol red for MCF7 cells) containing 10% FCS. All the media were supplemented with fungizone (1.25 μg/mL) and penicillin-streptomycin (100 U/100 μg/mL). Cells were cultured under standard conditions in an incubator at 37° C., 5% CO2 and 95% atmospheric humidity.
(§2) Selected drugs were investigated for their antiproliferative activity using an ATPlite proliferation assay (Perkin Elmer, Villebon sur Yvette, France) on a comprehensive panel of 4 cell lines. Cells were seeded in 96 well plates (10^3 cells/well for A549, 2.10^3 for MCF7, MDA-MB-231 and SN12C) at day 0 at a concentration to ensure cells remained in logarithmic cell growth phase throughout the 72 h drug treatment period. After a 24 h incubation period, all the cells were treated with serial dilutions of the tested compounds (11 μL of a 10× solution in 1% DMSO—6 wells/condition). To avoid adherence of the compounds onto the tips, tips were changed between two consecutive dilutions. Cells were then placed in 37° C., 5% CO2 incubator. On day 4, cell viability was evaluated by dosing the ATP released by viable cells. The number of viable cells was analyzed in comparison with the number of solvent treated cells. The EC50 values were determined with curve fitting analysis (non linear regression model with a sigmoidal dose response, variable hill slope coefficient), performed with the algorithm provided by the GraphPad Software (GraphPad Software Inc., CA, USA).
In general terms: Cellular ATP, detected with luciferase, serves as a proxy for viable cell number.

The test system of a further assay is MDA-MB-231 cells. The experiment in a line: ATPlite antiproliferative assay, MDA-MB-231. Format: cell-based. As to conditions: Homo sapiens. The procedure: as §1, §2
The next assay relates to MCF7 cells. The experiment in a line: ATPlite antiproliferative assay, MCF7. Format: cell-based. The following applies: Homo sapiens. As for the experimental part: as §1
(§3) Selected drugs were investigated for their antiproliferative activity using an ATPlite proliferation assay (Perkin Elmer, Villebon sur Yvette, France) on a comprehensive panel of 4 cell lines. […] On day 4, cell viability was evaluated by dosing the ATP released by viable cells. The number of viable cells was analyzed in comparison with the number of solvent treated cells. The EC50 values were determined with curve fitting analysis (non linear regression model with a sigmoidal dose response, variable hill slope coefficient), performed with the algorithm provided by the GraphPad Software (GraphPad Software Inc., CA, USA).

For another assay, the system named is SN-12C cells. The experiment in a line: ATPlite antiproliferative assay, SN12C. Type of assay: cell-based. As to conditions: Homo sapiens. As for the experimental part: as §1, §3
The test system of another assay is lysosome functions. Description: inhibition of antibody degradation by lysosome inhibitor. Format: cell-based. The following applies: cells with 10 μg/ml Ab, 2 h at 37° C. The procedure: In order to confirm that second IGF-1R antibodies Ab reached the lysosome were they are degraded, cells were treated or not with bafilomycine A1, a potent inhibitor of lysosome functions. Cells were then incubated with 10 μg/ml of Ab to be tested at 4° C., washed and incubated for 2 h at 37° C. The internalized Ab was detected after cell permeabilisation using a secondary anti-mouse IgG-Alexa 488 Ab.

A further assay concerns the target IGF-1R (Homo sapiens, UniProt P08069). As to conditions: background statement; cited from earlier work.
The mark [1] stands for this setting: A549, comparative examples table, read-out: EC50 (M) A549.
Where [2] appears, read: MDA-MB-231, comparative examples table, read-out: EC50 (M) MDA-MB-231.

One may read the EC50 as the midpoint of the concentration-response curve. The term Kd denotes the free concentration of one partner at which half of the binding sites on the other are occupied at equilibrium, for simple one-to-one binding.

Where two headings read alike, the source gives them in different places. Where a SMILES comes first, the peptide text is derived from it. [ ]: non-standard residue; d: D form. The star is where a group is joined. Dolaproine = CO[C@@H]([C@@H]1CCCN1)[C@@H](C)C(=O)O; Dil = CC[C@H](C)[C@H](NC)[C@@H](CC(=O)O)OC; X2 = CNc1ccc(CCN(C)[C@H](C(=O)*)C(C)C)cc1; X3 = CC(C)C(C(=O)*)N(C)CCc1ccc(C(=O)O)cc1; X1 = CC(C)[C@@H](C(=O)*)N(C)Cc1cccc(N)c1

On to `CC[C@H](C)[C@@H]([C@@H](CC(=O)N1CCC[C@H]1[C@H](OC)[C@@H](C)C(=O)N[C@@H](Cc1ccccc1)C(=O)OC)OC)N(C)C(=O)[C@@H](NC(=O)[C@H](C(C)C)N(C)CCc1ccc(NC)cc1)C(C)C` [Compound 12, methyl (S)-2-((2R,3R)-3-((S)-1-((3R,4S,5S)-4-((S)—N,3-dimethyl-2-((S)-3-methyl-2-(methyl(4-(methylamino)phenethyl)amino)butanamido)butanamido)-3-methoxy-5-methylheptanoyl)pyrrolidin-2-yl)-3-methoxy-2-methylpropanamido)-3-phenylpropanoate, trifluoroacetic Acid] (X2-V[Dil][Dolaproine]F-OMe), for which the EC50 in the assay on A549 cells (setting [1]) amounted to 1.48e-10 M; in the assay with MDA-MB-231 cells (setting [2]), 5.8e-10 M; in the assay with MDA-MB-231 cells (MDA-MB-231, read-out: EC50) it was 5.8e-10 M.
For `CC[C@H](C)[C@@H]([C@@H](CC(=O)N1CCC[C@H]1[C@H](OC)[C@@H](C)C(=O)N[C@@H](Cc1ccccc1)C(=O)O)OC)N(C)C(=O)[C@@H](NC(=O)[C@H](C(C)C)N(C)CCc1ccc(NC)cc1)C(C)C` [Compound 13, (S)-2-((2R,3R)-3-((S)-1-((3R,4S,5S)-4-((S)—N,3-dimethyl-2-((S)-3-methyl-2-(methyl(4-(methylamino)phenethyl)amino)butanamido)butanamido)-3-methoxy-5-methylheptanoyl)pyrrolidin-2-yl)-3-methoxy-2-methylpropanamido)-3-phenylpropanoic acid, trifluoroacetic Acid] (X2-V[Dil][Dolaproine]F-OH), the EC50 was found to be 2.71e-08 M in the assay on A549 cells (setting [1]); 7.95e-08 M with MDA-MB-231 cells (setting [2]); 7.95e-08 M in the assay with MDA-MB-231 cells (MDA-MB-231, read-out: EC50).
Regarding `CC[C@H](C)[C@@H]([C@@H](CC(=O)N1CCC[C@H]1[C@H](OC)[C@@H](C)C(=O)N[C@@H](Cc1ccccc1)C(=O)OC)OC)N(C)C(=O)[C@@H](NC(=O)[C@H](C(C)C)N(C)Cc1cccc(N)c1)C(C)C` [Compound 15, methyl (S)-2-((2R,3R)-3-((S)-1-((3R,4S,5S)-4-((S)-2-((S)-2-((3-aminobenzyl) (methyl)amino)-3-methylbutanamido)-N,3-dimethylbutanamido)-3-methoxy-5-methylheptanoyl)pyrrolidin-2-yl)-3-methoxy-2-methylpropanamido)-3-phenylpropanoate, trifluoroacetic Acid] (X1-V[Dil][Dolaproine]F-OMe), the concentration for a half-maximal effect (EC50) is 1.45e-10 M in the assay on A549 cells (A549, 72 h drug treatment, read-out: EC50 (M) A549); 1.45e-10 M with A549 cells (setting [1]); less than 1e-07 M in the assay on A549 cells (A549, text bound, read-out: EC50); 1.7e-10 M with MDA-MB-231 cells (MDA-MB-231, 72 h, 72 h drug treatment, read-out: EC50 (M) MDA-MB-231); less than 1e-07 M in the assay with MDA-MB-231 cells (MDA-MB-231, MDA-MB-231, text bound, read-out: EC50); 1.7e-10 M in the assay with MDA-MB-231 cells (setting [2]). Also, the EC50 in the assay with MDA-MB-231 cells (MDA-MB-231, read-out: EC50) is 1.7e-10 M; in the assay on MCF7 cells (72 h drug treatment, read-out: EC50 (M) MCF-7), 7.15e-10 M; in the assay on MCF7 cells (MCF-7, text bound, read-out: EC50), less than 1e-07 M; in the assay with SN-12C cells (72 h drug treatment, read-out: EC50 (M) SN12C), 2.18e-10 M; in the assay on SN-12C cells (text bound, read-out: EC50) it was less than 1e-07 M.
As to `CO/C1=C\C(C)=C\[C@@H](C)[C@@H](O)[C@@H](C)C/C(C)=C/C=C/[C@H](OC)[C@@H]([C@@H](C)[C@@H](O)[C@H](C)[C@@]2(O)C[C@@H](O)[C@H](C)[C@@H](C(C)C)O2)OC1=O` [bafilomycine A1], in the assay with lysosome functions, the “effect on degradation of intracellular Ab” value is listed as “prevented the degradation of intracellular Ab”.
Consider `CC[C@H](C)[C@@H]([C@@H](CC(=O)N1CCC[C@H]1[C@H](OC)[C@@H](C)C(=O)N[C@@H](Cc1ccccc1)C(=O)OC)OC)N(C)C(=O)[C@@H](NC(=O)C(C(C)C)N(C)CCc1ccc(C(=O)O)cc1)C(C)C` (some centres unmarked) [compound 1, reference compound] (X3-V[Dil][Dolaproine]F-OMe), for which the EC50 in the assay with A549 cells (setting [1]) came to 3.76e-09 M; in the assay with MDA-MB-231 cells (setting [2]), 2.29e-09 M.
For `CC[C@H](C)[C@@H]([C@@H](CC(=O)N1CCC[C@H]1[C@H](OC)[C@@H](C)C(=O)N[C@@H](Cc1ccccc1)C(=O)O)OC)N(C)C(=O)[C@@H](NC(=O)C(C(C)C)N(C)CCc1ccc(C(=O)O)cc1)C(C)C` (some centres unmarked) [compound 2, reference compound] (X3-V[Dil][Dolaproine]F-OH) the same measures were 4.03e-07 M and 9.75e-07 M.
On to “IGF2: insulin-like growth factor 2, ligand of IGF-1R”, for which the Kd with IGF-1R was roughly 1 nM.
